{
  "source": "paper PMC3986712",
  "about": "“Diclofenac Salts. V. Examples of Polymorphism among Diclofenac Salts with Alkyl-hydroxy Amines Studied by DSC and HSM” (Pharmaceutics, 2010)",
  "origin": "cited, not measured here",
  "settings": "free base (counterion), no reference given",
  "data": [
    {"smiles": "NC(CO)(CO)CO", "note": "[TRIS base, Tris-methylol aminomethane]", "values": [
      {"measurement": "pKa", "value": 7.76}
    ]}
  ]
}
